Assay results taken from US10849901B2, “Arf6 inhibitors and methods of synthesis and use thereof” (Navigen, Inc., priority 2014, dated 2020).
“Also recorded” adds a separate entry of the source. Like-named read-outs stand apart in the source and are kept apart here.

Experiments:
Arf6 [1] = molecular target: Arf6 (Homo sapiens (Human), UniProt P62330); assay: Fluorometric assay for Arf6 nucleotide exchange catalyzed by ARNO Sec7 domain (GTP-BODIPY FL); type: biochemical
Arf6 [2] = molecular target: Arf6 (Mus musculus (Mouse), UniProt P62331); assay: Arf6 pulldown assay (GTP-bound Arf6, GST-Gga3, Western blot); type: cell-based; conditions: NIH3T3 cells, 4 hours incubation
Experimental: The cell cultures were incubated in the presence of test compounds for 4 hours followed by pull-down of GTP-bound Arf6 from cell lysates using recombinant GST-Gga3 immobilized on glutathione agarose and Western blot analysis.
Arf6 pulldown assay: Assessment of intracellular levels of active Arf6 may be a direct mechanism-based approach for monitoring on-target cellular activities of active Arf6 inhibitors. A commercially available pull-down technique, which relies on recombinant Gga3 protein as a sensor of the GTP-bound state for the members of Arf protein family, can be employed for this purpose (see, e.g., Shiba T, Kawasaki M, Takatsu H, Nogi T, Matsugaki N, Igarashi N, Suzuki M, Kato R, Nakayama K, Wakatsuki S. Molecular mechanism of membrane recruitment of GGA by ARF in lysosomal protein transport. Nat Struct Biol. 2003 May; 10(5):386-93).
The vendor's procedure was modified from 10-cm culture dish to 24-well plate format and adapted to a number of different cell lines, including cultured mouse embryonic fibroblasts NIH 3T3 due to its robust response to Arf6 inhibitors observed in the proof-of-principle studies (see FIG. 2).

LOX melanoma cells [3] = assay: Cell invasion assay (Matrigel Invasion Chambers); type: cell-based
Source text: Cell invasion assay: This assay uses Matrigel Invasion Chambers (BD Biosciences) and monitors cell penetration through 8.0 μm filters coated with a solubilized basement membrane matrix, which serves as barrier for non-invading cells (see, e.g., Albini A, Iwamoto Y, Kleinman H K, Martin G R, Aaronson S A, Kozlowski J M, McEwan R N. A rapid in vitro assay for quantitating the invasive potential of tumor cells. Cancer Res. 1987 Jun. 15; 47(12):3239-45).

LOX melanoma cells [4] = assay: Cell proliferation assay (WST-8), LOX; type: cell-based; conditions: concentrations greater than 1 μM
Source text: (§1) Cell proliferation assay: This assay employs WST-8 colorimetric readout (Dojindo) and relies on the total activity of mitochondrial dehydrogenases as a measure of the number of viable cells over time.

[5] = test system: LN-229 glioblastoma cells; assay: Cell proliferation assay (WST-8), LN-229; type: cell-based; conditions: concentrations greater than 1 μM
Source text: as §1

[6] = test system: VEGF-induced retinal permeability; assay: VEGF-induced retinal permeability in mice (Evans blue dye); type: in vivo; conditions: mice
Experimental: (§2) In the experiment, VEGF (50 ng) and either Compound 38 or 65 (500 ng) or NAV-3745 (500 ng) were given to mice in a single intraocular injection. Evans blue dye (EBD) was given via IV approximately 6 hours after the injection, and the retinas were harvested after an additional 2 hours. Retinal permeability was measured on Day 2 after an overnight extraction of EBD in formamide, at OD 620-740 nm.
as §2, with “the test compound” for “either Compound 38 or 65 (500 ng) or NAV-3745 (500 ng)”, “injection. Avastin was given at a dose of 20 μg, Compound 38 at either 50 ng or 500 ng (as noted in FIG. 7), and SU4312 at 5 μg. As with the previous experiment,” for “injection.”

[7] = test system: VEGF-induced retinal permeability; assay: VEGF-induced retinal permeability in rats (Evans blue dye); type: in vivo; conditions: rats; Compound 38 60 mg/kg IP, Avastin 200 μg intraocular (FIG. 8)
Experimental: In the experiment, VEGF (500 ng) and Avastin (200 μg) were given to rats in a single intraocular injection on Day 1. Compound 38 (60 mg/kg) was administered by IP injection 1 hour prior to VEGF on Day 1. Rats were given Evans blue dye (EBD) via IV infusion on Day 2, and the retinas were harvested after an additional 1.5 hours. The retinas were dissected and incubated overnight in formamide. Vascular leak was calculated on Day 3.

[8] = test system: Choroidal Neovascularization (CNV); assay: Laser-induced choroidal neovascularization (CNV) in mice; type: in vivo; conditions: 5 μg, 0.5 μg and 0.05 μg on Days 0 and 7, measured Day 14
Experimental: In the experiment on Day 0, the Bruch's membrane of each eye was disrupted with a laser. On Days 0 and 7, test compounds were administered, and on Day 14, the area of CNV was measured. Commercially available compound SU4312 was used as a positive control. Compound 38 was dosed at 5 μg, 0.5 μg, and 0.05 μg, as noted in FIG. 9.

[9] = test system: oxygen-induced retinopathy; assay: Oxygen-induced retinopathy (OIR) in mice; type: in vivo; conditions: 5 μg intraocular Days 12 and 15, measured Day 17
Experimental: In the experiment, mice pups were placed in a 75% oxygen environment from Days 5-12. The mice were returned to a normal oxygen environment on Day 13. The test compounds were administered (5 μg) by intraocular injection on Days 12 and 15, and the area of neovascularization was measured on Day 17. Compound 38 was compared with SU4312 in oxygen-induced retinopathy (OIR) in mice (see FIG. 11). […]

[10] = test system: LPS-induced acute lung injury; assay: LPS-induced acute lung injury in mice (BALF analysis); type: in vivo; conditions: 24 hours after LPS, Compound 38 60 mg/kg, dexamethasone 5 mg/kg
Experimental: In the experiment, LPS (5 mg/kg) was given by intra-tracheal instillation. Dexamethasone (5 mg/kg) was given as a positive control 2 hours after the LPS. Bronchoalveolar fluid (BALF) was analyzed for cell count and protein 24 hours after the LPS.

H1N1 virus = conditions: IP QD five days; Compound 65 20 mg/kg, ribavirin 75 mg/kg
[11] = 20 nM Arf6 assay, read-out: IC50 (μM) 20 nM Arf6
[12] = 200 nM Arf6 assay, read-out: IC50 (μM) 200 nM Arf6
[13] = 500 ng single intraocular injection with VEGF 50 ng (FIG. 6)

Arf6 (Homo sapiens (Human), UniProt P62330), sequence (P62330 14-175): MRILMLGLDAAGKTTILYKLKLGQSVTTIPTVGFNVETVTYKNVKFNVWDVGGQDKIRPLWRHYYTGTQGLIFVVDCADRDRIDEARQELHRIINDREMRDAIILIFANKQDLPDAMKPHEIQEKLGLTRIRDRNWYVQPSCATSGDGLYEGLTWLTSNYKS
Arf6 (Mus musculus (Mouse), UniProt P62331), sequence (P62331 whole entry): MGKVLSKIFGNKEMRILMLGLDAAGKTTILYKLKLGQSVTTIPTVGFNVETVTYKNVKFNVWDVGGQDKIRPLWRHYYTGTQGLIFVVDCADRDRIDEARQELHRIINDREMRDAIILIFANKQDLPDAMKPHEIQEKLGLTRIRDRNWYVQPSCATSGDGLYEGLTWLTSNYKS

| Structure (SMILES) | IC50 (Arf6 [1]; [11]) [µM] | IC50 (Arf6 [1]; [12]) [µM] | Inhibition of Arf6 activation (GTP-bound Arf6) (Arf6 [2]) | FBS-induced LOX cell invasion through Matrigel (LOX melanoma cells [3]; 1 μM) | inhibition of melanoma cell invasion (LOX melanoma cells [3]; LOX melanoma cells) | inhibition of LOX cell proliferation (LOX melanoma cells [4]) | inhibition of LN-229 cell proliferation [5] | VEGF-induced retinal permeability [6, 13] | VEGF-induced retinal permeability ([6]; single intraocular injection, Compound 38 50 ng or 500 ng, Avastin 20 μg, SU4312 5 μg (FIG. 7)) | VEGF-induced retinal permeability [7] | area of CNV [8] | area of neovascularization [9] | number of cells in the lung fluid (BALF) [10] | protein concentration in the lung fluid (BALF) [10] | mortality of mice infected with H1N1 virus (H1N1 virus) |
| --- | --- | --- | --- | --- | --- | --- | --- | --- | --- | --- | --- | --- | --- | --- | --- |
| O=c1cc(-c2ccc([N+](=O)[O-])cc2)[nH]c2c(-c3ccc(Cl)cc3)c(Cc3ccccc3)nn12 [Compound 38] | 1.8 | 1.4 | Inhibition of Arf6 activation | substantially inhibit, or completely inhibit | can inhibit invasion; also recorded: more potent inhibitor of melanoma cell invasion than SecinH3 | can inhibit proliferation; also recorded: potent inhibitor | can inhibit proliferation; also recorded: potent inhibitor | reduced VEGF-induced retinal permeability | reduced VEGF-induced retinal permeability | reduced VEGF-induced retinal permeability | reduced the area of CNV in a dose-dependent manner | reduced the area of neovascularization | reduced the number of cells | reduced | – |
| O=c1cc(Cc2ccccc2)[nH]c2c(-c3ccc(Cl)cc3)c(C(F)(F)F)nn12 [Compound 65] | 3.7 | 4.9 | – | – | – | – | – | reduced VEGF-induced retinal permeability | – | – | – | – | – | – | reduced the mortality of mice nearly as well as ribavirin |
